Results on 21 compounds are retold here after patent publication US8445510B2, “Fused bicyclic kinase inhibitors” (OSI Pharmaceuticals, LLC, priority 2011, dated 2013).

In general, IC50 refers to the midpoint of a concentration-inhibition curve.

Where only a bound is given, the exact number is not on record here.

Experiment [1] deals with T1, RON (Homo sapiens, UniProt Q04912).
T1 sequence (Q04912 913-1400): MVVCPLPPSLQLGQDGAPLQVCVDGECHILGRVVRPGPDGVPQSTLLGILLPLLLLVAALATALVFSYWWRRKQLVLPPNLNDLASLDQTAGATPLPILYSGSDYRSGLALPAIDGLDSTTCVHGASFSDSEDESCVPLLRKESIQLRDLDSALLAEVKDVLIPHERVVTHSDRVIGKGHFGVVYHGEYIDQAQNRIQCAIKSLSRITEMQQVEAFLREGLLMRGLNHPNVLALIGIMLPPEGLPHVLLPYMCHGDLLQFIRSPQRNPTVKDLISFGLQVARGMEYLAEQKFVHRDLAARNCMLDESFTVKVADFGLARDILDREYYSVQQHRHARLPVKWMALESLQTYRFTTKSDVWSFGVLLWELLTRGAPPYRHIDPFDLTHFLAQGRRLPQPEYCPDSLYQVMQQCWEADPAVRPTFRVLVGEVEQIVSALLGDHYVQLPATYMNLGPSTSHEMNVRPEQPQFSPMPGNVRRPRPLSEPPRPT
Nature of the experiment: sfRON cell mechanistic assay (HeLa), phosphorylated RON ELISA. The experiment is classed as cell-based. The note with it: HeLa cells transfected with sfRON; inhibition of phosphorylated RON; four hours incubation; at least duplicate experiments; read-out: sfRON mech IC50. The essentials: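 HeLa cells transiently transfected with sfRON plasmid, then exposed 4 h at 37 °C to a 6-point compound series (typically 10 μM to 3 nM, 0.5% DMSO). Phospho-RON (pY1238/1239) in lysates measured by sandwich ELISA with luminescence. IC50 from 4-parameter fit of percent-of-DMSO-control data, at least duplicate runs.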
A general note: In an ELISA, binding on a coated surface is turned into a signal by an enzyme label.

Experiment [2] has as its system MKN45 cells. Nature of the experiment: MKN45 cell proliferation assay (CellTiter-Glo). The experiment is classed as cell-based. The note with it: Homo sapiens, MKN-45, 72 h; MKN45 cell line; 3 days incubation; at least duplicate experiments; read-out: Prolif. IC50. In general terms: Cellular ATP, detected with luciferase, serves as a proxy for viable cell number.

`Cc1c(-c2cnc3[nH]cc([C@H](C)c4c(Cl)ccc(F)c4Cl)c3c2)cnn1[C@H]1CC[C@H](O)CC1` [Example 67, trans-4-(4-{3-[(1S)-1-(2,6-Dichloro-3-fluorophenyl)ethyl]-1H-pyrrolo[2,3-b]pyridin-5-yl}-5-methyl-1H-pyrazol-1-yl)cyclohexanol]: the half-inhibitory concentration (IC50) in experiment [1] was 200 to 1000 nM; in experiment [2], at most 50 nM.

As for `Cc1nn(C[C@@H](O)CO)c(C)c1-c1cnc2[nH]cc([C@H](C)c3c(OC(F)F)ccc(F)c3Cl)c2c1` [Example 69, (2R)-3-[4-(3-{(1S)-1-[2-Chloro-6-(difluoromethoxy)-3-fluorophenyl]ethyl}-1H-pyrrolo[2,3-b]pyridin-5-yl)-3,5-dimethyl-1H-pyrazol-1-yl]propane-1,2-diol], the results for the IC50 in experiment [1] and in experiment [2] were at most 200 nM and at most 50 nM, respectively.

As to `Cc1c(-c2cnc3[nH]cc([C@H](C)c4c(OC(F)F)ccc(F)c4Cl)c3c2)cnn1C[C@H](O)CO` [Example 70, (2S)-3-[4-(3-{(1S)-1-[2-Chloro-6-(difluoromethoxy)-3-fluorophenyl]ethyl}-1H-pyrrolo[2,3-b]pyridin-5-yl)-5-methyl-1H-pyrazol-1-yl]propane-1,2-diol], the IC50 in experiment [1] was at most 200 nM; in experiment [2], at most 50 nM.

For the compound `Cc1nn(C[C@H](O)CO)cc1-c1cnc2[nH]cc([C@H](C)c3c(OC(F)F)ccc(F)c3Cl)c2c1` [Example 71, (2S)-3-[4-(3-{(1S)-1-[2-Chloro-6-(difluoromethoxy)-3-fluorophenyl]ethyl}-1H-pyrrolo[2,3-b]pyridin-5-yl)-3-methyl-1H-pyrazol-1-yl]propane-1,2-diol], the figures for the IC50 in experiment [1] and in experiment [2] were at most 200 nM and at most 50 nM, respectively.

In the case of `CCc1c(-c2cnc3[nH]cc([C@H](C)c4c(OC(F)F)ccc(F)c4Cl)c3c2)cnn1CC(C)(C)O` [Example 72, 1-[4-(3-{(1S)-1-[2-Chloro-6-(difluoromethoxy)-3-fluorophenyl]ethyl}-1H-pyrrolo[2,3-b]pyridin-5-yl)-5-ethyl-1H-pyrazol-1-yl]-2-methylpropan-2-ol], the IC50 in experiment [1] fell in the range of 200 to 1000 nM; in experiment [2], 50 to 200 nM.

Consider `CCc1nn(CC(C)(C)O)cc1-c1cnc2[nH]cc([C@H](C)c3c(OC(F)F)ccc(F)c3Cl)c2c1` [Example 73, 1-[4-(3-{(1S)-1-[2-Chloro-6-(difluoromethoxy)-3-fluorophenyl]ethyl}-1H-pyrrolo[2,3-b]pyridin-5-yl)-3-ethyl-1H-pyrazol-1-yl]-2-methylpropan-2-ol], for which the 50% inhibitory concentration (IC50) in experiment [1] is 200 to 1000 nM; in experiment [2], at most 50 nM.

On to `Cc1c(-c2cnc3[nH]cc([C@H](C)c4c(OC(F)F)ccc(F)c4Cl)c3c2)cnn1[C@H]1CC[C@H](O)CC1` [Example 74, trans-4-[4-(3-{(1S)-1-[2-Chloro-6-(difluoromethoxy)-3-fluorophenyl]ethyl}-1H-pyrrolo[2,3-b]pyridin-5-yl)-5-methyl-1H-pyrazol-1-yl]cyclohexanol], for which the results for the 50% inhibitory concentration (IC50) in experiment [1] and in experiment [2] were at most 200 nM and at most 50 nM, respectively.

`Cc1c(-c2cnc3[nH]cc([C@H](C)c4c(OC(F)F)ccc(F)c4Cl)c3c2)cnn1[C@@H]1C[C@@H](O)[C@@H](O)C1` [Example 75, (1R,2S,4S)-4-[4-(3-{(1S)-1-[2-Chloro-6-(difluoromethoxy)-3-fluoro-phenyl]ethyl}-1H-pyrrolo[2,3-b]pyridin-5-yl)-5-methyl-1H-pyrazol-1-yl]cyclopentane-1,2-diol]: the IC50 was at most 200 nM in experiment [1] and at most 50 nM in experiment [2].

`Cc1c(-c2cnc3[nH]cc([C@H](C)c4c(OC(F)F)ccc(F)c4Cl)c3c2)cnn1[C@H]1CC[C@H](C(N)=O)CC1` [Example 76, trans-4-[4-(3-{(1S)-1-[2-Chloro-6-(difluoromethoxy)-3-fluorophenyl]ethyl}-1H-pyrrolo[2,3-b]pyridin-5-yl)-5-methyl-1H-pyrazol-1-yl]cyclohexanecarboxamide]: the IC50 in experiment [1] is at most 200 nM; in experiment [2], at most 50 nM.

Turning to `CCc1nn([C@H]2CC[C@H](O)CC2)cc1-c1cnc2[nH]cc([C@H](C)c3c(OC(F)F)ccc(F)c3Cl)c2c1` [Example 77, trans-4-[4-(3-{(1S)-1-[2-Chloro-6-(difluoromethoxy)-3-fluorophenyl]ethyl}-1H-pyrrolo[2,3-b]pyridin-5-yl)-3-ethyl-1H-pyrazol-1-yl]cyclohexanol], the IC50 in experiment [1] was at most 200 nM; in experiment [2] it was at most 50 nM.

As for `CCc1c(-c2cnc3[nH]cc([C@H](C)c4c(OC(F)F)ccc(F)c4Cl)c3c2)cnn1[C@H]1CC[C@H](O)CC1` [Example 78, trans-4-[4-(3-{(1S)-1-[2-Chloro-6-(difluoromethoxy)-3-fluorophenyl]ethyl}-1H-pyrrolo[2,3-b]pyridin-5-yl)-5-ethyl-1H-pyrazol-1-yl]cyclohexanol], the concentration for half-maximal inhibition (IC50) in experiment [1] is 200 to 1000 nM; in experiment [2], at most 50 nM.

Take `Cc1c(-c2cnc3[nH]cc([C@H](C)c4c(OC(F)F)ccc(F)c4Cl)c3c2)cnn1[C@H]1C[C@@](C)(O)C1` [Example 79, cis-3-[4-(3-{(1S)-1-[2-Chloro-6-(difluoromethoxy)-3-fluorophenyl]ethyl}-1H-pyrrolo[2,3-b]pyridin-5-yl)-5-methyl-1H-pyrazol-1-yl]-1-methylcyclobutanol]: the half-inhibitory concentration (IC50) in experiment [1] was 200 to 1000 nM; in experiment [2], at most 50 nM.

As for `Cc1c(-c2cnc3[nH]cc([C@H](C)c4c(OC(F)F)ccc(F)c4Cl)c3c2)cnn1[C@H]1C[C@@H](O)C1` [Example 81, cis-3-[4-(3-{(1S)-1-[2-Chloro-6-(difluoromethoxy)-3-fluorophenyl]ethyl}-1H-pyrrolo[2,3-b]pyridin-5-yl)-5-methyl-1H-pyrazol-1-yl]cyclobutanol], the half-maximal inhibitory concentration (IC50) in experiment [1] is 200 to 1000 nM; in experiment [2] it was at most 50 nM.

Regarding `C[C@H](c1c(OC(F)F)ccc(F)c1Cl)c1c[nH]c2ncc(-c3cnn([C@H]4CC[C@H](O)CC4)c3Cl)cc12` [Example 82, trans-4-[5-Chloro-4-(3-{(1S)-1-[2-chloro-6-(difluoromethoxy)-3-fluorophenyl]ethyl}-1H-pyrrolo[2,3-b]pyridin-5-yl)-1H-pyrazol-1-yl]cyclohexanol], the half-inhibitory concentration (IC50) was 200 to 1000 nM in experiment [1] and at most 50 nM in experiment [2].

Turning to `C[C@H](c1c(OC(F)F)ccc(F)c1Cl)c1c[nH]c2ncc(-c3cnn([C@H]4CC[C@H](O)CC4)c3CO)cc12` [Example 83, trans-4-[4-(3-{(1S)-1-[2-Chloro-6-(difluoromethoxy)-3-fluorophenyl]ethyl}-1H-pyrrolo[2,3-b]pyridin-5-yl)-5-(hydroxymethyl)-1H-pyrazol-1-yl]cyclohexanol], the IC50 is 200 to 1000 nM in experiment [1] and at most 50 nM in experiment [2].

As to `C[C@H](c1c(OC(F)F)ccc(F)c1Cl)c1c[nH]c2ncc(-c3cnn([C@H]4CC[C@H](O)CC4)c3F)cc12` [Example 84, trans-4-[4-(3-{(1S)-1-[2-Chloro-6-(difluoromethoxy)-3-fluorophenyl]ethyl}-1H-pyrrolo[2,3-b]pyridin-5-yl)-5-fluoro-1H-pyrazol-1-yl]cyclohexanol], the half-inhibitory concentration (IC50) was 200 to 1000 nM in experiment [1] and at most 50 nM in experiment [2].

In the case of `[2H]C([2H])([2H])c1c(-c2cnc3[nH]cc([C@H](C)c4c(OC(F)F)ccc(F)c4Cl)c3c2)cnn1[C@H]1CC[C@H](O)CC1` [Example 85, trans-4-[4-(3-{(1S)-1-[2-Chloro-6-(difluoromethoxy)-3-fluorophenyl]ethyl}-1H-pyrrolo[2,3-b]pyridin-5-yl)-5-(^2H3)methyl-1H-pyrazol-1-yl]cyclohexanol], the figures for the half-maximal inhibitory concentration (IC50) in experiment [1] and in experiment [2] were 200 to 1000 nM and at most 50 nM, respectively.

On to `Cc1c(-c2cnc3[nH]cc([C@H](C)c4c(OC(F)F)ccc(F)c4Cl)c3c2)cnn1C1CCNCC1` [Example 96, 3-{(1S)-1-[2-Chloro-6-(difluoromethoxy)-3-fluorophenyl]ethyl}-5-[5-methyl-1-(piperidin-4-yl)-1H-pyrazol-4-yl]-1H-pyrrolo[2,3-b]pyridine], for which the IC50 was at most 200 nM in experiment [1] and at most 50 nM in experiment [2].

On to `CC(=O)N1CCC(n2ncc(-c3cnc4[nH]cc([C@H](C)c5c(OC(F)F)ccc(F)c5Cl)c4c3)c2C)CC1` [Example 97, 1-{4-[4-(3-{(1S)-1-[2-Chloro-6-(difluoromethoxy)-3-fluorophenyl]ethyl}-1H-pyrrolo[2,3-b]pyridin-5-yl)-5-methyl-1H-pyrazol-1-yl]piperidin-1-yl}ethanone], for which the figures for the IC50 in experiment [1] and in experiment [2] were at most 200 nM and at most 50 nM, respectively.

For `COc1ccc(F)c(Cl)c1[C@@H](C)c1c[nH]c2ncc(-c3cn([C@H]4CC[C@H](O)CC4)nc3OC)cc12` [Example 99, trans-4-(4-{3-[(1S)-1-(2-chloro-3-fluoro-6-methoxyphenyl)ethyl]-1H-pyrrolo[2,3-b]pyridin-5-yl}-3-methoxy-1H-pyrazol-1-yl)cyclohexanol], the IC50 in experiment [1] is at most 200 nM; in experiment [2], at most 50 nM.

For the compound `COc1nn([C@H]2CC[C@H](O)CC2)cc1-c1cnc2[nH]cc([C@H](C)c3c(OC(F)F)ccc(F)c3Cl)c2c1` [Example 100, trans-4-[4-(3-{(1S)-1-[2-chloro-6-(difluoromethoxy)-3-fluorophenyl]ethyl}-1H-pyrrolo[2,3-b]pyridin-5-yl)-3-methoxy-1H-pyrazol-1-yl]cyclohexanol], the 50% inhibitory concentration (IC50) was at most 200 nM in experiment [1] and at most 50 nM in experiment [2].
